Measured values taken from the NIST ThermoML archive (doi:10.1016/j.jct.2013.10.005).
± gives the expanded uncertainty stated by the source.

Details: 298 K; 101.33 kPa; Crystal; X-ray diffraction

## O.O.O.O.O=C([O-])[C@H](O)[C@@H](O)[C@H](O)[C@H](O)CO.O=C([O-])[C@H](O)[C@@H](O)[C@H](O)[C@H](O)CO.[Ba+2] [barium D-gluconate tetrahydrate]
  mass density: 1969 ± 10 kg/m3
